Source: patent US20240217983A1, “GPR119 AGONISTS” (Kallyope, Inc., priority 2021, published 2024)

Biological target: T1, human GPR119 (hGPR119) (Homo sapiens, UniProt Q8TDV5)
T1 construct: expressed in transfected cells
T1 sequence (Q8TDV5 1-335): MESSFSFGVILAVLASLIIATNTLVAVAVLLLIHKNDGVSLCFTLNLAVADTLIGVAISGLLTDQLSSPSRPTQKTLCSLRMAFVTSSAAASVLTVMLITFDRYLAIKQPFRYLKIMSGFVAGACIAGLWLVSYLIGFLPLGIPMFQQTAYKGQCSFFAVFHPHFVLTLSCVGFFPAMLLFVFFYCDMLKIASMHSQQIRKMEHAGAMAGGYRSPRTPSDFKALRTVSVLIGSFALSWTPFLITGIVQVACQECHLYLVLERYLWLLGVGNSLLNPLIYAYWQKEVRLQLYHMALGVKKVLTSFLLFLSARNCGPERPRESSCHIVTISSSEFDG
Assay: cAMP accumulation assay (Cisbio cAMP Gs dynamic HTRF kit) in CHO-K1 cells stably expressing human GPR119
Format: cell-based
Settings: 4-parameter fit; for Emax: 1 h, % activity normalized to Max and Min controls; for EC50: 60 minutes at 37° C.
Summary of the method: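 Read-out is HTRF 665/620 nm ratio after 1 h detection at ambient temperature, converted to % activity against positive and negative controls, EC50 and Max activity by 4-parameter fit. Compounds were titrated onto ~10,000 thawed hGPR119-CHO-K1 cells/well for 60 min at 37° C/5% CO2.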

Compound | Emax | EC50
O=C(Cc1ccc(OCCCC2CCN(c3ncc(Cl)cn3)CC2)cc1F)N1CCC2(CCN2C[C@H](O)[C@H](O)[C@H](O)CO)C1 (stereo partly drawn) [Example 30, 2-(4-(3-(1-(5-chloropyrimidin-2-yl)piperidin-4-yl)propoxy)-2-fluorophenyl)-1-(1-((2S,3S,4R)-2,3,4,5-tetrahydroxypentyl)-1,6-diazaspiro[3.4]octan-6-yl)ethan-1-one] | 100 to 130% | ≤ 100 nM
CCOc1cnc(N2CCC(CCCOc3cc(F)c(CC(=O)N4CCN(C[C@H](O)[C@@H](O)[C@H](O)[C@H](O)CO)CC4)c(F)c3)CC2)nc1 [Example 97, 2-(4-(3-(1-(5-ethoxypyrimidin-2-yl)piperidin-4-yl)propoxy)-2,6-difluorophenyl)-1-(4-((2S,3R,4R,5R)-2,3,4,5,6-pentahydroxyhexyl)piperazin-1-yl)ethan-1-one] | 100 to 130% | ≤ 100 nM
O=C(Cc1ccc(OCCCC2CCN(c3ncc(Cl)cn3)CC2)cc1F)N1CC2CCC1CN2C[C@H](O)[C@@H](O)[C@H](O)[C@H](O)CO (stereo partly drawn) [Example 53, 2-(4-(3-(1-(5-chloropyrimidin-2-yl)piperidin-4-yl)propoxy)-2-fluorophenyl)-1-(5-((2S,3R,4R,5R)-2,3,4,5,6-pentahydroxyhexyl)-2,5-diazabicyclo[2.2.2]octan-2-yl)ethan-1-one] | 100 to 130% | ≤ 100 nM
O=C(Cc1ccc(OCCCC2CCN(c3ncc(Cl)cn3)CC2)cc1F)N1CCC2(CCCC2NC[C@H](O)[C@H](O)[C@H](O)CO)C1 (stereo partly drawn) [Example 76, 2-(4-(3-(1-(5-chloropyrimidin-2-yl)piperidin-4-yl)propoxy)-2-fluorophenyl)-1-(6-(((2S,3S,4R)-2,3,4,5-tetrahydroxypentyl)amino)-2-azaspiro[4.4]nonan-2-yl)ethan-1-one] | ≥ 130% | ≤ 100 nM
O=C(Cc1ccc(OCCCC2CCN(c3ncc(Cl)cn3)CC2)cc1F)N1CC2(C1)N(C[C@H](O)[C@@H](O)[C@H](O)[C@H](O)CO)CC2(F)F [Example 63, 2-(4-(3-(1-(5-chloropyrimidin-2-yl)piperidin-4-yl)propoxy)-2-fluorophenyl)-1-(3,3-difluoro-1-((2S,3R,4R,5R)-2,3,4,5,6-pentahydroxyhexyl)-1,6-diazaspiro[3.3]heptan-6-yl)ethan-1-one] | ≥ 130% | ≤ 100 nM

The remaining lines, values ahead:

Emax | EC50 | Compound
100 to 130% | ≤ 100 nM | O=C(Cc1ccc(OCCCC2CCN(c3ncc(Cl)cn3)CC2)cc1F)N1CCN(C[C@H](O)[C@@H](O)[C@H](O)[C@H](O)CO)CC1 [Example 27, 2-(4-(3-(1-(5-chloropyrimidin-2-yl)piperidin-4-yl)propoxy)-2-fluorophenyl)-1-(4-((2S,3R,4R,5R)-2,3,4,5,6-pentahydroxyhexyl)piperazin-1-yl)ethan-1-one]
100 to 130% | ≤ 100 nM | O=C(CCCCS(=O)(=O)O)N1C[C@@H]2C[C@H]1CN2C(=O)Cc1ccc(OCCCC2CCN(c3ncc(Cl)cn3)CC2)cc1F [Example 15, 5-((1S,4S)-5-(2-(4-(3-(1-(5-chloropyrimidin-2-yl)piperidin-4-yl)propoxy)-2-fluorophenyl)acetyl)-2,5-diazabicyclo[2.2.1]heptan-2-yl)-5-oxopentane-1-sulfonic acid]
100 to 130% | ≤ 100 nM | O=C(Cc1ccc(OCCCC2CCN(c3ncc(Cl)cn3)CC2)cc1F)N1C[C@H]2CCN(C(=O)CCCCS(=O)(=O)O)[C@H]2C1 [Example 20, 5-((3aR,6aR)-5-(2-(4-(3-(1-(5-chloropyrimidin-2-yl)piperidin-4-yl)propoxy)-2-fluorophenyl)acetyl)hexahydropyrrolo[3,4-b]pyrrol-1(2H)-yl)-5-oxopentane-1-sulfonic acid]
100 to 130% | ≤ 100 nM | O=C(Cc1ccc(OCCCC2CCN(c3ncc(Cl)cn3)CC2)cc1F)N1CCC2(CC2NC[C@H](O)[C@H](O)[C@H](O)CO)C1 (stereo partly drawn) [Example 83, 2-(4-(3-(1-(5-chloropyrimidin-2-yl)piperidin-4-yl)propoxy)-2-fluorophenyl)-1-(1-(((2S,3S,4R)-2,3,4,5-tetrahydroxypentyl)amino)-5-azaspiro[2.4]heptan-5-yl)ethan-1-one]
